PubChem BioAssay AID2060599 (Molecular Pharmacology Branch, DTP, NCI, 2025)

Test system: 817829-284-R-J1-PDC complex spheroids, viability
Assay: Anticancer human tumor 817829-284-R-J1-PDC patient-derived colon adenocarcinoma cell line growth inhibition [CLK]
Conditions: for IC50: curve of first compound; for viability, T/C: stronger effect = lower value
Method in brief: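 Multi-cell-type spheroids combined patient-derived tumor cells with HUVEC endothelial cells and human mesenchymal stem cells. Paired agents were dosed in half-log steps down from about clinical Cmax, or from 10 microM where Cmax was unknown.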

[1] = second compound 0.0316 µM, first compound 0.0316 µM
[2] = second compound 0.0316 µM, first compound 0.1 µM
[3] = second compound 0.0316 µM, first compound 0.316 µM
[4] = second compound 0.0316 µM, first compound 1 µM
[5] = second compound 0.1 µM, first compound 0.0316 µM
[6] = second compound 0.1 µM, first compound 0.1 µM
[7] = second compound 0.1 µM, first compound 0.316 µM
[8] = second compound 0.1 µM, first compound 1 µM
[9] = second compound 0.316 µM, first compound 0.0316 µM
[10] = second compound 0.316 µM, first compound 0.1 µM
[11] = second compound 0.316 µM, first compound 0.316 µM
[12] = second compound 0.316 µM, first compound 1 µM
[13] = second compound 1 µM, first compound 0.0316 µM
[14] = second compound 1 µM, first compound 0.1 µM
[15] = second compound 1 µM, first compound 0.316 µM
[16] = second compound 1 µM, first compound 1 µM
[17] = second compound 3.16 µM, first compound 0.0316 µM
[18] = second compound 3.16 µM, first compound 0.1 µM
[19] = second compound 3.16 µM, first compound 0.316 µM
[20] = second compound 3.16 µM, first compound 1 µM
[21] = second compound 10 µM, first compound 0.0316 µM
[22] = second compound 10 µM, first compound 0.1 µM
[23] = second compound 10 µM, first compound 0.316 µM
[24] = second compound 10 µM, first compound 1 µM
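Note: spheroids exposed to the agents for seven days before readout.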

SMILES: CC(=O)O[C@H]1C(=O)[C@@]2(C)[C@H]([C@H](OC(=O)c3ccccc3)[C@]3(O)C[C@H](OC(=O)[C@H](O)[C@@H](NC(=O)c4ccccc4)c4ccccc4)C(C)=C1C3(C)C)[C@]1(OC(C)=O)CO[C@@H]1C[C@@H]2O + CNC(=O)c1ccc(Nc2nc(OC3CCCC3)c3c(-c4ccc5nc(C)oc5c4)c[nH]c3n2)c(OC)c1
- IC50 (second compound 0.0316 µM): < 31.6 nM
- IC50 (second compound 0.1 µM): < 31.6 nM
- IC50 (second compound 0.316 µM): < 31.6 nM
- IC50 (second compound 1 µM): < 31.6 nM
- IC50 (second compound 3.16 µM): < 31.6 nM
- IC50 (second compound 10 µM): < 31.6 nM
- viability, T/C [1]: 10.8%
- viability, T/C [2]: 11.5%
- viability, T/C [3]: 10.8%
- viability, T/C [4]: 10.6%
- viability, T/C (second compound 0.0316 µM, first compound 3.16 µM): 11.6%
- viability, T/C (second compound 0.0316 µM, first compound 10 µM): 16.2%
- viability, T/C [5]: 24.2%
- viability, T/C [6]: 25.3%
- viability, T/C [7]: 20.2%
- viability, T/C [8]: 23.8%
- viability, T/C (second compound 0.1 µM, first compound 3.16 µM): 28.9%
- viability, T/C (second compound 0.1 µM, first compound 10 µM): 26.8%
- viability, T/C [9]: 29.5%
- viability, T/C [10]: 31.6%
- viability, T/C [11]: 43.8%
- viability, T/C [12]: 38.9%
- viability, T/C (second compound 0.316 µM, first compound 3.16 µM): 45.1%
- viability, T/C (second compound 0.316 µM, first compound 10 µM): 32.6%
- viability, T/C [13]: 31.7%
- viability, T/C [14]: 23.7%
- viability, T/C [15]: 24%
- viability, T/C [16]: 30.4%
- viability, T/C (second compound 1 µM, first compound 3.16 µM): 22.6%
- viability, T/C (second compound 1 µM, first compound 10 µM): 22.8%
- viability, T/C [17]: 26.2%
- viability, T/C [18]: 23.9%
- viability, T/C [19]: 17.7%
- viability, T/C [20]: 20.1%
- viability, T/C (second compound 3.16 µM, first compound 3.16 µM): 23.3%
- viability, T/C (second compound 3.16 µM, first compound 10 µM): 23.3%
- viability, T/C [21]: 18.6%
- viability, T/C [22]: 23.3%
- viability, T/C [23]: 29.5%
- viability, T/C [24]: 24.3%
- viability, T/C (second compound 10 µM, first compound 3.16 µM): 20.5%
- viability, T/C (second compound 10 µM, first compound 10 µM): 19.9%

SMILES: CCc1c2c(nc3ccc(O)cc13)-c1cc3c(c(=O)n1C2)COC(=O)[C@]3(O)CC + CNC(=O)c1ccc(Nc2nc(OC3CCCC3)c3c(-c4ccc5nc(C)oc5c4)c[nH]c3n2)c(OC)c1
- IC50 (second compound 0.0316 µM): < 3.16 nM
- IC50 (second compound 0.1 µM): < 3.16 nM
- IC50 (second compound 0.316 µM): < 3.16 nM
- IC50 (second compound 1 µM): < 3.16 nM
- IC50 (second compound 3.16 µM): < 3.16 nM
- IC50 (second compound 10 µM): < 3.16 nM
- viability, T/C (second compound 0.0316 µM, first compound 0.00316 µM): 18.9%
- viability, T/C (second compound 0.0316 µM, first compound 0.01 µM): 16.6%
- viability, T/C [1]: 13.2%
- viability, T/C [2]: 9.4%
- viability, T/C [3]: 6.53%
- viability, T/C [4]: 4.13%
- viability, T/C (second compound 0.1 µM, first compound 0.00316 µM): 21.3%
- viability, T/C (second compound 0.1 µM, first compound 0.01 µM): 17.2%
- viability, T/C [5]: 13.2%
- viability, T/C [6]: 9.71%
- viability, T/C [7]: 7.28%
- viability, T/C [8]: 4.24%
- viability, T/C (second compound 0.316 µM, first compound 0.00316 µM): 17.3%
- viability, T/C (second compound 0.316 µM, first compound 0.01 µM): 17%
- viability, T/C [9]: 13%
- viability, T/C [10]: 7.86%
- viability, T/C [11]: 5.8%
- viability, T/C [12]: 3.35%
- viability, T/C (second compound 1 µM, first compound 0.00316 µM): 15.2%
- viability, T/C (second compound 1 µM, first compound 0.01 µM): 12.4%
- viability, T/C [13]: 7.9%
- viability, T/C [14]: 5.92%
- viability, T/C [15]: 4.02%
- viability, T/C [16]: 2.78%
- viability, T/C (second compound 3.16 µM, first compound 0.00316 µM): 13.2%
- viability, T/C (second compound 3.16 µM, first compound 0.01 µM): 9.13%
- viability, T/C [17]: 6.71%
- viability, T/C [18]: 6.34%
- viability, T/C [19]: 4.45%
- viability, T/C [20]: 2.73%
- viability, T/C (second compound 10 µM, first compound 0.00316 µM): 11.9%
- viability, T/C (second compound 10 µM, first compound 0.01 µM): 8.01%
- viability, T/C [21]: 7.69%
- viability, T/C [22]: 4.85%
- viability, T/C [23]: 4.44%
- viability, T/C [24]: 2.57%
